# Experimental data as given in patent US20250221413A1, “Use and Preparation Method of Sulfoxamyl, and Oxidation System” (priority 2023, published 2025).
# Several values for one entry are separate records, joined by “and”; a condition that tells them apart may be missing. Identical values can stand only once. Like-named read-outs stand apart in the source and are kept apart here.
# Test system: Meloidogyne incognita
# Assay: Indoor toxicity test against Meloidogyne incognita second-instar larvae (J2)
# Conditions: 24 h
# Method: Materials: the tested nematodes were collected from three different areas, namely cucumber crops in Dawenkou Town, Tai'an City, Shandong Province, and were all identified as southern root-knot nematodes (Meloidogyne incognita). The diseased roots were washed, cut into small sections of 0.5 cm to 1 cm, rinsed in 1% NaClO solution for about 30 s to 60 s, and rinsed with 200-mesh and 500-mesh sieves to collect nematode eggs for later use. The collected eggs were incubated at 25° C. using the Bayman funnel method and the second-instar larvae were collected 1 time per 24 h to ensure that the second-instar larvae selected each time were fresh and of consistent vitality.
# The agent was 98% sulfoxamyl technical, and the comparison agents were 96% oxamyl technical and 87% fosthiazate technical.
# The preparation for the agent was in accordance with the provisions for preparation of the liquid medicine in the Agricultural Industry Standard of the People's Republic of China NYT 1833.1-2009 “Guideline for laboratory bioassay of pesticides”, as shown in Table 6.
# Methods: according to the experimental plan, the test agent was diluted to different mass concentrations, and 0.5 mL of the agent solution and 0.5 mL of the nematode solution (containing about 100 nematodes) were added into a 24-well cell culture plate. The treatment with each concentration of the agent was repeated 4 times, and auxiliary agent control and blank control were also conducted. […]
smiles,measurement,setting,value
"CCOP(=O)(SC(C)CC)N1CCSC1=O (stereo not shown) [Fosthiazate, fosthiazate]",Corrected mortality,3.125 mg/L,17.51% and 18.63% and 12.52%
same,Death count,3.125 mg/L,24 and 38 and 26 and 20
same,Mortality,3.125 mg/L,23.90% and 25.74% and 16.13%
same,Corrected mortality,6.25 mg/L,33.03% and 29.63% and 42.23%
same,Death count,6.25 mg/L,36 and 60 and 39 and 58
same,Mortality,6.25 mg/L,38.22% and 35.78% and 44.62%
same,Corrected mortality,12.5 mg/L,57.70% and 46.22% and 41.17% and 62.23%
same,Death count,12.5 mg/L,80 and 64 and 69 and 74
same,Mortality,12.5 mg/L,50.39% and 46.31% and 63.79%
same,Corrected mortality,25 mg/L,74.92% and 67.46% and 64.47%
same,Death count,25 mg/L,68 and 93 and 116 and 91
same,Mortality,25 mg/L,76.86% and 70.30% and 65.94%
same,Corrected mortality,50 mg/L,79.38% and 77.71% and 74.49%
same,Death count,50 mg/L,84 and 132 and 94 and 105
same,Mortality,50 mg/L,80.98% and 79.66% and 75.54%
same,Corrected mortality,100 mg/L,75.25% and 86.39% and 79.87%
same,Death count,100 mg/L,117 and 98 and 141 and 92
same,Mortality,100 mg/L,77.17% and 87.58% and 80.70%
same,LC90,,146.50 µg/mL
same,LC50,Meloidogyne incognita,14.6 µg/mL
same,mortality at 3.125 µg/mL,"Meloidogyne incognita, 3.125 mg/L",16.6%
same,mortality at 6.25 µg/mL,"Meloidogyne incognita, 6.25 mg/L",28.6%
same,mortality at 12.5 µg/mL,"Meloidogyne incognita, 12.5 mg/L",59.7%
same,mortality at 25 µg/mL,"Meloidogyne incognita, 25 mg/L",64.2%
same,mortality at 50 µg/mL,"Meloidogyne incognita, 50 mg/L",82.3%
same,mortality at 100 µg/mL,"Meloidogyne incognita, 100 mg/L",80.1%
same,mortality at 3.125 µg/mL,"Meloidogyne incognita, read-out: Corrected mortality, 3.125 mg/L, 24 h",12.4%
same,mortality at 6.25 µg/mL,"Meloidogyne incognita, read-out: Corrected mortality, 6.25 mg/L, 24 h",25%
same,mortality at 25 µg/mL,"Meloidogyne incognita, read-out: Corrected mortality, 25 mg/L, 24 h",62.4%
same,mortality at 50 µg/mL,"Meloidogyne incognita, read-out: Corrected mortality, 50 mg/L, 24 h",81.5%
same,mortality at 100 µg/mL,"Meloidogyne incognita, read-out: Corrected mortality, 100 mg/L, 24 h",79.2%
